Laboratory results from patent US9512115B2, “Inhibitors” (PROBIODRUG AG, priority 2013, dated 2016).

Experiment: Pharmacokinetic parameters in mice after oral administration (plasma, brain, CSF)
Format: in vivo, mice (strain CD-1)
Details: brain tissue vs plasma; CD-1 mice, 30 mg/kg orally
Protocol: The mice were anesthetized with Isoflurane. Approximate 200 μL of each blood sample were collected via cardiac puncture for terminal bleeding into K2EDTA tubes. […] CSF collection: The animals were euthanized with pure CO2 inhalation. A mid line incision was made on the neck. The muscle under the skin was cut to expose the cisterna magna. The cisterna magna was penetrated with the sharp end of a capillary and CSF was collected via capillarity. […] A mid-line incision was made in the animal scalp. The brain was removed and rinsed with cold saline. Brain was placed into a screw-top tube and weighed. […] The brain concentration was corrected with a dilution factor of 4 as following: Brain concentration=brain homogenate conc.×4, assuming 1 g wet brain tissue equals to 1 ml. For plasma samples: […] For Brain samples: Brain tissue was homogenized for 2 min with 3 volumes (v/w) of PBS. […] For CSF samples: […] Tmax, T1/2, AUC and log BB values were calculated using conventional methods.

Row | SMILES | logBB
1 | CC(F)(F)COc1ccc([C@H]2COC(=O)N2c2ccc3[nH]cnc3c2)c(F)c1F [compound 6, (S)-3-(1H-benzo[d]imidazol-5-yl)-4-(4-(2,2-difluoropropoxy)-2,3-difluorophenyl)oxazolidin-2-one] | −1.0431
2 | O=C1OC[C@H](c2ccc(N3CCC(F)(F)C3)c(F)c2F)N1c1ccc2[nH]cnc2c1 [compound 19, (S)-3-(1H-benzo[d]imidazol-5-yl)-4-(4-(3,3-difluoropyrrolidin-1-yl)-2,3-difluorophenyl)-oxazolidin-2-one] | −1.2208
3 | O=C1OC[C@H](c2ccc(N3CCC(F)(F)C3)cc2F)N1c1ccc2[nH]cnc2c1 [compound 18, (S)-3-(1H-benzo[d]imidazol-5-yl)-4-(4-(3,3-difluoropyrrolidin-1-yl)-2-fluorophenyl)-oxazolidin-2-one] | −1.2913
4 | CC(F)(F)CCOc1ccc([C@H]2COC(=O)N2c2ccc3[nH]cnc3c2)cc1F [compound 10, (S)-3-(1H-benzo[d]imidazol-5-yl)-4-(4-(3,3-difluorobutoxy)-3-fluorophenyl)oxazolidin-2-one] | −1.1234
5 | CC(F)(F)CCOc1ccc([C@H]2COC(=O)N2c2ccc3[nH]cnc3c2)c(F)c1F [compound 1, (S)-3-(1H-benzo[d]imidazol-5-yl)-4-(4-(3,3-difluorobutoxy)-2,3-difluorophenyl)-oxazolidin-2-one] | −0.9363
6 | CC(F)(F)CCOc1ccc([C@H]2COC(=O)N2c2ccc3[nH]cnc3c2)c(F)c1 [compound 3, (S)-3-(1H-benzo[d]imidazol-5-yl)-4-(4-(3,3-difluorobutoxy)-2-fluorophenyl)oxazolidin-2-one] | −1.0428

Other lines, results leading:

Row | logBB | SMILES
7 | −1.0928 | CC(F)(F)COc1ccc([C@H]2COC(=O)N2c2ccc3[nH]cnc3c2)cc1F [compound 5, (S)-3-(1H-benzo[d]imidazol-5-yl)-4-(4-(2,2-difluoropropoxy)-3-fluorophenyl)oxazolidin-2-one]
8 | −1.208 | O=C1OC[C@H](c2ccc(N3CCC(F)(F)C3)c(F)c2)N1c1ccc2[nH]cnc2c1 [compound 21, (S)-3-(1H-benzo[d]imidazol-5-yl)-4-(4-(3,3-difluoropyrrolidin-1-yl)-3-fluorophenyl) oxazolidin-2-one]
9 | −0.9439 | CC(F)(F)COc1ccc([C@H]2COC(=O)N2c2ccc3[nH]cnc3c2)c(F)c1 [compound 7, (S)-3-(1H-benzo[d]imidazol-5-yl)-4-(4-(2,2-difluoropropoxy)-2-fluorophenyl)oxazolidin-2-one]
10 | −1.1821 | O=C1OC[C@H](c2ccc(OCCC(F)F)c(F)c2)N1c1ccc2[nH]cnc2c1 [compound 12, (S)-3-(1H-benzo[d]imidazol-5-yl)-4-(4-(3,3-difluoropropoxy)-3-fluorophenyl)oxazolidin-2-one]
11 | −0.9451 | O=C1OC[C@H](c2ccc(OCCC(F)F)c(F)c2F)N1c1ccc2[nH]cnc2c1 [compound 11, (S)-3-(1H-benzo[d]imidazol-5-yl)-4-(4-(3,3-difluoropropoxy)-2,3-difluorophenyl)oxazolidin-2-one]
12 | −0.9993 | CC(F)(F)COc1c(F)cc([C@H]2COC(=O)N2c2ccc3[nH]cnc3c2)cc1F [compound 8, (S)-3-(1H-benzo[d]imidazol-5-yl)-4-(4-(2,2-difluoropropoxy)-3,5-difluorophenyl)oxazolidin-2-one]
13 | −1.1517 | O=C1OC[C@H](c2ccc(OCCC(F)F)cc2F)N1c1ccc2[nH]cnc2c1 [compound 2, (S)-3-(1H-benzo[d]imidazol-5-yl)-4-(4-(3,3-difluoropropoxy)-2-fluorophenyl)oxazolidin-2-one]
